Measured values as given in patent publication US20220249441A1, “Homodimeric Tobramycin Adjuvant Repurposes Novobiocin as an Effective Antibacterial Agent Against Gram-Negative Bacteria” (priority 2019, published 2022).
Read-outs that look alike come from different tables or passages of the source.

Tests used:
P. aeruginosa = assay: Checkerboard assay (antibiotic + adjuvant combination MIC); type: cell-based, Pseudomonas aeruginosa
Protocol: Antimicrobial Susceptibility Assay. The in vitro antimicrobial activity of all compounds/antibiotics against a panel of bacteria was evaluated by microbroth dilution method in accordance with the Clinical and Laboratory Standards Institute (CLSI) guidelines (using ATCC strains as quality control strains) (54). Overnight grown bacterial cultures were diluted in saline to achieve a 0.5 McFarland turbidity, followed by 1:50 dilution in Mueller-Hinton broth (MHB) for inoculation to a final concentration of approximately 5×10^5 CFU/mL. […] The lowest concentration that prevented the visible growth of bacteria was defined as the MIC for each antimicrobial agent. The broth with or without bacterial cells was used as positive or negative control, respectively.
Checkerboard Assay. Combination studies with different antibiotics were performed in 96-well plates as previously described (19). Briefly, the antibiotic of interest was serially diluted in MHB along the abscissa while the adjuvant (tobramycin homodimer) was serially diluted in MHB along the ordinate. This creates a 10×7 matrices wherein each well consists of a combination of different antibiotic and adjuvant concentrations. Overnight grown bacterial cultures were diluted in saline to achieve a 0.5 McFarland turbidity, followed by 1:50 dilution in Mueller-Hinton broth (MHB) for inoculation to a final concentration of approximately 5×10^5 CFU/mL. […] MIC was recorded as wells with the lowest concentration of drugs with no bacterial growth. The fractional inhibitory concentration (FIC) for each antibiotic was calculated by dividing the MIC of the antibiotic in the presence of adjuvant by the MIC of the antibiotic alone. Similarly, the FIC of adjuvant was calculated by dividing the MIC of the adjuvant in the presence of antibiotic by the MIC of the adjuvant alone. FIC index is the sum of both FICs. FIC indices of ≤0.5 were deemed synergistic; >0.5-4, no interaction; and >4, antagonistic.

[1] = test system: P. aeruginosa PAO1 and efflux deficient mutants, MDR/XDR isolates; assay: microbe, parasite or virus in culture; type: cell-based, Pseudomonas aeruginosa
Protocol: Antimicrobial Susceptibility Assay. The in vitro antimicrobial activity of all compounds/antibiotics against a panel of bacteria was evaluated by microbroth dilution method in accordance with the Clinical and Laboratory Standards Institute (CLSI) guidelines (using ATCC strains as quality control strains) (54). […] The broth with or without bacterial cells was used as positive or negative control, respectively.

[2] = P. aeruginosa PAO1, compound at 8 μM
[3] = PA 262-101856, compound at 8 μM
[4] = PA 264-104354, compound at 8 μM
[5] = PA O200 (efflux-deficient), compound at 8 μM
[6] = PA O750 (efflux-deficient), compound at 8 μM

NC[C@H]1O[C@H](O[C@H]2[C@H](OCCCCc3cn(CCCCO[C@@H]4[C@@H](O)[C@H](N)C[C@H](N)[C@H]4O[C@H]4O[C@H](CN)[C@@H](O)C[C@H]4N)nn3)[C@@H](O)[C@H](N)C[C@@H]2N)[C@H](N)C[C@@H]1O [Compound 26, Nebramine Homodimer]
32 mg/L: MIC of CAZ in the presence of compound (P. aeruginosa; [4]) | MIC of ATM in the presence of compound (P. aeruginosa; PA 86052, compound at 8 μM) | MIC of IPM in the presence of compound (P. aeruginosa; PA 88949, compound at 8 μM) | MIC of CAZ in the presence of compound (P. aeruginosa; PA 101243, compound at 8 μM) | MIC of ATM in the presence of compound (P. aeruginosa; PA 107092, compound at 8 μM) | MIC of IPM in the presence of compound (P. aeruginosa; PA 107092, compound at 8 μM) | MIC of CAZ in the presence of compound (P. aeruginosa; PA 108590, compound at 8 μM) | MIC of CAZ in the presence of compound (P. aeruginosa; PA 109084, compound at 8 μM)
8 mg/L: MIC of Piperacillin + compound (P. aeruginosa; [2]) | MIC of ATM in the presence of compound (P. aeruginosa; PA 259-96918, compound at 8 μM) | MIC of ATM in the presence of compound (P. aeruginosa; [4]) | MIC of IPM in the presence of compound (P. aeruginosa; [4]) | MIC of IPM in the presence of compound (P. aeruginosa; PA 91433, compound at 8 μM) | MIC of ATM in the presence of compound (P. aeruginosa; PA 101243, compound at 8 μM) | MIC of IPM in the presence of compound (P. aeruginosa; PA 101243, compound at 8 μM) | MIC of IPM in the presence of compound (P. aeruginosa; PA 108590, compound at 8 μM)
2 mg/L: MIC of Imipenem + compound (P. aeruginosa; [2]) | MIC of ATM in the presence of compound (P. aeruginosa; PA 91433, compound at 8 μM) | MIC of IPM in the presence of compound (P. aeruginosa; [6]) | MIC of IPM in the presence of compound (P. aeruginosa; PAO1, compound at 8 μM)
0.5 mg/L: MIC of Ceftazidime + compound (P. aeruginosa; [2]) | MIC of CAZ in the presence of compound (P. aeruginosa; PA 91433, compound at 8 μM) | MIC of CAZ in the presence of compound (P. aeruginosa; PAO1, compound at 8 μM)
128 mg/L: MIC of CAZ in the presence of compound (P. aeruginosa) | MIC ([1]; PAO200 (second column so headed))
0.06 mg/L: MIC of ATM in the presence of compound (P. aeruginosa; [5])
>128 mg/L: MIC ([1]; PAO1 (wild-type)) | MIC ([1]; PAO200 (first column so headed))
16 mg/L: MIC of ATM in the presence of compound (P. aeruginosa; PA 260-97103, compound at 8 μM) | MIC of CAZ in the presence of compound (P. aeruginosa; PA 260-97103, compound at 8 μM) | MIC of IPM in the presence of compound (P. aeruginosa; PA 260-97103, compound at 8 μM) | MIC of ATM in the presence of compound (P. aeruginosa; [3]) | MIC of CAZ in the presence of compound (P. aeruginosa; [3]) | MIC of IPM in the presence of compound (P. aeruginosa; PA 86052, compound at 8 μM) | MIC of ATM in the presence of compound (P. aeruginosa; PA 88949, compound at 8 μM) | MIC of ATM in the presence of compound (P. aeruginosa; PA 108590, compound at 8 μM) | MIC of ATM in the presence of compound (P. aeruginosa; PA 109084, compound at 8 μM) | MIC of IPM in the presence of compound (P. aeruginosa; PA 109084, compound at 8 μM) | MIC of ATM in the presence of compound (P. aeruginosa; PA 114228, compound at 8 μM)
64 mg/L: MIC of IPM in the presence of compound (P. aeruginosa; PA 259-96918, compound at 8 μM) | MIC of CAZ in the presence of compound (P. aeruginosa; PA 86052, compound at 8 μM) | MIC of CAZ in the presence of compound (P. aeruginosa; PA 88949, compound at 8 μM)
4 mg/L: MIC of IPM in the presence of compound (P. aeruginosa; [3]) | MIC of ATM in the presence of compound (P. aeruginosa; PA 100036, compound at 8 μM) | MIC of CAZ in the presence of compound (P. aeruginosa; PA 100036, compound at 8 μM) | MIC of IPM in the presence of compound (P. aeruginosa; PA 100036, compound at 8 μM) | MIC of ATM in the presence of compound (P. aeruginosa; PA 101885, compound at 8 μM) | MIC of IPM in the presence of compound (P. aeruginosa; PA 101885, compound at 8 μM) | MIC of IPM in the presence of compound (P. aeruginosa; PA 114228, compound at 8 μM)
1 mg/L: MIC of Aztreonam + compound (P. aeruginosa; [2]) | MIC of CAZ in the presence of compound (P. aeruginosa; PA 101885, compound at 8 μM) | MIC of CAZ in the presence of compound (P. aeruginosa; PA 114228, compound at 8 μM) | MIC of IPM in the presence of compound (P. aeruginosa; [5]) | MIC of ATM in the presence of compound (P. aeruginosa; PAO1, compound at 8 μM)
0.25 mg/L: MIC of CAZ in the presence of compound (P. aeruginosa; [5]) | MIC of ATM in the presence of compound (P. aeruginosa; [6])
0.13 mg/L: MIC of CAZ in the presence of compound (P. aeruginosa; [6])
